Data reported in PMC13266999, “Designing Antibiotics with Inherent Resistance to Efflux as a Strategy to Revive Discovery against Multidrug-Resistant Pathogens” (Journal of Medicinal Chemistry, 2026).
Values joined by “and” are separate entries in the source; they are usually repeats but may differ in a detail not shown here. Equal entries are not always repeated.

Key:
E. faecium = test: Mutation frequency and agar MIC; type: cell-based; conditions: NCTC 12204
COX2(h) = target: T1, COX2(h) (Homo sapiens, UniProt P35354); test: SafetyScreen44; type: biochemical; conditions: enzymatic activity, 1.0E-05 M
T1 construct: purchased Eurofins (SafetyScreen44)
Method: (§1) Off-target pharmacology was evaluated using the Eurofins SafetyScreen44 in vitro panel. […] Binding assays were performed using radioligand displacement, and enzyme or uptake assays measured inhibition of control activity using validated detection methods (scintillation counting, fluorimetry or photometry). Responses were expressed as percent inhibition of control binding or activity. Based on Eurofins interpretation guidelines, effects ≥50% were considered significant, effects between 25% and 50% weak to moderate, and effects <25% were not considered biologically relevant.

PDE4D2 (h) = target: T2, PDE4D2 (h) (Homo sapiens, UniProt Q08499); test: SafetyScreen44; type: biochemical; conditions: enzymatic activity, 1.0E-05 M
T2 construct: purchased Eurofins (SafetyScreen44)
Method: as §1

PDE3A (h) = target: T3, PDE3A (h) (Homo sapiens, UniProt Q14432); test: SafetyScreen44; type: biochemical; conditions: enzymatic activity, 1.0E-05 M
T3 construct: purchased Eurofins (SafetyScreen44)
Method: as §1

COX1(h) = target: T4, COX1(h) (Homo sapiens, UniProt P23219); test: SafetyScreen44; type: biochemical; conditions: enzymatic activity, 1.0E-05 M
T4 construct: purchased Eurofins (SafetyScreen44)
Method: as §1

Lck kinase (h) = target: T5, Lck kinase (h) (Homo sapiens, UniProt P06239); test: SafetyScreen44; type: biochemical; conditions: enzymatic activity, 1.0E-05 M
T5 construct: purchased Eurofins (SafetyScreen44)
Method: as §1

acetylcholinesterase (h) = target: T6, acetylcholinesterase (h) (Homo sapiens, UniProt P22303); test: SafetyScreen44; type: biochemical; conditions: enzymatic activity, 1.0E-05 M
T6 construct: purchased Eurofins (SafetyScreen44)
Method: as §1

[1] = Maximum tolerated dose study; conditions: for B.W.: animals N 1-3;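 as to all read-outs here: male ICR mice given oral doses under a stepwise escalation scheme to find the highest tolerated dose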
CYP1A = CYP1A (Homo sapiens, UniProt P05177); test: CYP inhibition; conditions: human liver microsomes, probe phenacetin, HLM, phenacetin substrate
Method: (§2) Cytochrome P450 inhibition was assessed in vitro using human recombinant enzymes in microsomal preparations. […] Enzyme activity was quantified by monitoring formation of substrate-specific metabolites, and percent inhibition was calculated relative to vehicle control.

[2] = tested on: NorA overexpressing strain NCTC 13616; test: Reserpine growth (efflux inhibition) assay; conditions: for AUC of growth curve: biological replicates 1-3
Method: Statistical analyses were performed with GraphPad Prism V9.5.0. […] Unpaired t tests were used when comparing two samples in the gyrase assays.

[3] = target: T7, Potassium Channel hERG (human) (Homo sapiens, UniProt Q12809); test: SafetyScreen44; conditions: [3H] Dofetilide, specific binding, 1.0E-05 M
T7 construct: purchased Eurofins (SafetyScreen44)
Method: as §1

ETA (h) = target: T8, ETA (h) (Homo sapiens, UniProt P25101); test: SafetyScreen44; conditions: agonist radioligand, specific binding, 1.0E-05 M
T8 construct: purchased Eurofins (SafetyScreen44)
T8 sequence (P25101 21-427): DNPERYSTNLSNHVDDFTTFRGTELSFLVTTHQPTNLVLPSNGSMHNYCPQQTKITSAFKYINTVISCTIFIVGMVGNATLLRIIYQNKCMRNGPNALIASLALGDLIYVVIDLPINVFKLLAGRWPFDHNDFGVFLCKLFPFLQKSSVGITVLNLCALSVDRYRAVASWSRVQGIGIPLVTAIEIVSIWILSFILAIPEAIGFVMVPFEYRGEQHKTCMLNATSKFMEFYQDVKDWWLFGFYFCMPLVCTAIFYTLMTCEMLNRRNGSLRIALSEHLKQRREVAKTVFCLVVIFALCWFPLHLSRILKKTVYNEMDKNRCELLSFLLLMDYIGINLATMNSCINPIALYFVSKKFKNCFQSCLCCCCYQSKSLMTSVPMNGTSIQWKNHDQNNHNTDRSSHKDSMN
Method: as §1

dopamine transporter (h) = target: T9, dopamine transporter (h) (Homo sapiens, UniProt Q01959); test: SafetyScreen44; conditions: antagonist radioligand, specific binding, 1.0E-05 M
T9 construct: purchased Eurofins (SafetyScreen44)
T9 sequence (Q01959 whole entry): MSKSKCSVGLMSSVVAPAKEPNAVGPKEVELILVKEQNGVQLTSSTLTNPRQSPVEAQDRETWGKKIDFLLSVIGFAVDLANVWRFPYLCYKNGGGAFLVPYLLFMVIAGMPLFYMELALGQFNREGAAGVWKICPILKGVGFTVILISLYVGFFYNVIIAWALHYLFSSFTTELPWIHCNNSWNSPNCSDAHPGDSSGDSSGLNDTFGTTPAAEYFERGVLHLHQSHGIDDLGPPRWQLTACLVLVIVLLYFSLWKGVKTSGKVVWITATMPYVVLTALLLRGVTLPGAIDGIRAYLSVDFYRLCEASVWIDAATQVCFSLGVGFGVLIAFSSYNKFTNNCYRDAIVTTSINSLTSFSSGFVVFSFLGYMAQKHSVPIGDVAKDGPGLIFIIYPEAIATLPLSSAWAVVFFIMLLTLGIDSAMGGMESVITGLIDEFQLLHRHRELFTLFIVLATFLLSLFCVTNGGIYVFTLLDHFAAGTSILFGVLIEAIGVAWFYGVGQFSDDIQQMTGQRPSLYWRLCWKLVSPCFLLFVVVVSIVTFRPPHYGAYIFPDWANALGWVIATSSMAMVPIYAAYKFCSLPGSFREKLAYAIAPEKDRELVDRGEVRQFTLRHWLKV
Method: as §1

5-HT3 (h) = target: T10, 5-HT3 (h) (Homo sapiens, UniProt P46098); test: SafetyScreen44; conditions: antagonist radioligand, specific binding, 1.0E-05 M
T10 construct: purchased Eurofins (SafetyScreen44)
T10 sequence (P46098 24-478): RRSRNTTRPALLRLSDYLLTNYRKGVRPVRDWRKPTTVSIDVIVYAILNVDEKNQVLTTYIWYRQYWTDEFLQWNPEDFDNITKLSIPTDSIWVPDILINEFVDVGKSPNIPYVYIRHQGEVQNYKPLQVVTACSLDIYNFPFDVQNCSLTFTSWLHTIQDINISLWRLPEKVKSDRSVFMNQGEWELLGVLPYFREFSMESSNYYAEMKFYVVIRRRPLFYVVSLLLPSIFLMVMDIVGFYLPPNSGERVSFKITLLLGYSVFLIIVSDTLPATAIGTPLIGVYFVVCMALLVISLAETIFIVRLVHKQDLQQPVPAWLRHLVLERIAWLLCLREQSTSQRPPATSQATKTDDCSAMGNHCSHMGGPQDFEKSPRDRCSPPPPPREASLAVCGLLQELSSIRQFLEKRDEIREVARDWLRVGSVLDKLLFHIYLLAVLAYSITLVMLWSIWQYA
Method: as §1

beta 2 (h) = target: T11, beta 2 (h) (Homo sapiens, UniProt P07550); test: SafetyScreen44; conditions: antagonist radioligand, specific binding, 1.0E-05 M
T11 construct: purchased Eurofins (SafetyScreen44)
T11 sequence (P07550 whole entry): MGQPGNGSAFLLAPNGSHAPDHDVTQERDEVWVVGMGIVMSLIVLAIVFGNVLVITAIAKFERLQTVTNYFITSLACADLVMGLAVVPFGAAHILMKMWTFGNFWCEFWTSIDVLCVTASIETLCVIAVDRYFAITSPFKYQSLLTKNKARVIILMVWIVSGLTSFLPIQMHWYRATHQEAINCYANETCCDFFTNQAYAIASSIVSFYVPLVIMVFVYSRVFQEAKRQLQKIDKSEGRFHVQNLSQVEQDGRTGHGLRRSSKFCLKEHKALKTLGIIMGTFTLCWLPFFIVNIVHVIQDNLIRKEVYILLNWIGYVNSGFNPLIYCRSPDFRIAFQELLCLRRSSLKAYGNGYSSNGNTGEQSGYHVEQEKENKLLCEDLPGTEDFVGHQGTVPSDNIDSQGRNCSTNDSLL
Method: as §1

alpha 2A (h) = target: T12, alpha 2A (h) (Homo sapiens, UniProt P08913); test: SafetyScreen44; conditions: antagonist radioligand, specific binding, 1.0E-05 M
T12 construct: purchased Eurofins (SafetyScreen44)
T12 sequence (P08913 whole entry): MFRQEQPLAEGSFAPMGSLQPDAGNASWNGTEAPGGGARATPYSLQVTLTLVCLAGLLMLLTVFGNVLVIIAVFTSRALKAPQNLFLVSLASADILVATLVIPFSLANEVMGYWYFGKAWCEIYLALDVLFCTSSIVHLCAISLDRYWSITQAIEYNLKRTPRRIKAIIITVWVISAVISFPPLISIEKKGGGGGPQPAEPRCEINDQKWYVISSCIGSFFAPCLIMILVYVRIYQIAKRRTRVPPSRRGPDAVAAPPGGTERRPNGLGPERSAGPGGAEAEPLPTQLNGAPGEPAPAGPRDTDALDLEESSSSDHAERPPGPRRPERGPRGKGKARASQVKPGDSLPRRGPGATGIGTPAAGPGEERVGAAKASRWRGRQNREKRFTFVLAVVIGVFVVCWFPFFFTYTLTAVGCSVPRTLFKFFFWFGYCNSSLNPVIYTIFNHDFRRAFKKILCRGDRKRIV
Method: as §1

V1a (h) = target: T13, V1a (h) (Homo sapiens, UniProt P37288); test: SafetyScreen44; conditions: agonist radioligand, specific binding, 1.0E-05 M
T13 construct: purchased Eurofins (SafetyScreen44)
Method: as §1

M2 (h) = target: T14, M2 (h) (Homo sapiens, UniProt P08172); test: SafetyScreen44; conditions: antagonist radioligand, specific binding, 1.0E-05 M
T14 construct: purchased Eurofins (SafetyScreen44)
T14 sequence (P08172 whole entry): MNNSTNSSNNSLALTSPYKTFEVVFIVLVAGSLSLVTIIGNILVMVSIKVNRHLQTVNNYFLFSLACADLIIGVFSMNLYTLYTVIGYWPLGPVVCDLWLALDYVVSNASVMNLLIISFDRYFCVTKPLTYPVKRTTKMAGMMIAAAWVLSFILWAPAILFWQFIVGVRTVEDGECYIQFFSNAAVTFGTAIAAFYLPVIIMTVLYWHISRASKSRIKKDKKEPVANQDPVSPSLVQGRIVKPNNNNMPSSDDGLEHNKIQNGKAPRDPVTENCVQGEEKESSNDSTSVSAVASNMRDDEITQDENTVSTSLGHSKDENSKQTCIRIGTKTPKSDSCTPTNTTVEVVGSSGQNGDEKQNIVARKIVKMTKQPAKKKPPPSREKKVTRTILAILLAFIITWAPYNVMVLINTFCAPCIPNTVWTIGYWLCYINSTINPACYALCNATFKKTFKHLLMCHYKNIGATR
Method: as §1

5-HT1B = target: T15, 5-HT1B (Rattus norvegicus, UniProt P28564); test: SafetyScreen44; conditions: antagonist radioligand, specific binding, 1.0E-05 M
T15 construct: purchased Eurofins (SafetyScreen44)
Method: as §1

5-HT transporter (h) = target: T16, 5-HT transporter (h) (Homo sapiens, UniProt P31645); test: SafetyScreen44; conditions: antagonist radioligand, specific binding, 1.0E-05 M
T16 construct: purchased Eurofins (SafetyScreen44)
T16 sequence (P31645 whole entry): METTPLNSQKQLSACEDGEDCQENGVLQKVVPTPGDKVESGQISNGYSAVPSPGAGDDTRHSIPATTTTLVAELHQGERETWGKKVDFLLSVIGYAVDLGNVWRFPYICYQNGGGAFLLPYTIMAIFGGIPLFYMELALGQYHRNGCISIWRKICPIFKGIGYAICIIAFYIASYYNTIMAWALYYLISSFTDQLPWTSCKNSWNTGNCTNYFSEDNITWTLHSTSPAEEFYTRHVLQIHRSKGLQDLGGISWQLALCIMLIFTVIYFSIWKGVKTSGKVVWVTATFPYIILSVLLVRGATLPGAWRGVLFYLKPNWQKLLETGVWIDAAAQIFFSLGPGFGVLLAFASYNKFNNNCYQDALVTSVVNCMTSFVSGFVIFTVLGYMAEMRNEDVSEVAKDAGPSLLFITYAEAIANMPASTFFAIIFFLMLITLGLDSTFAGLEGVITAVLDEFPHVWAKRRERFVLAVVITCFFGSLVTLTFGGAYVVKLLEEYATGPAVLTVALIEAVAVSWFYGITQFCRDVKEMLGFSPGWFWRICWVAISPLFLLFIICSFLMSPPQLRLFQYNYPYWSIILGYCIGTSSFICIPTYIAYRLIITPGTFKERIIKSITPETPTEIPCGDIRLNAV
Method: as §1

MAO-A = target: T17, MAO-A (Rattus norvegicus, UniProt P21396); test: SafetyScreen44; conditions: antagonist radioligand, specific binding, 1.0E-05 M
T17 construct: purchased Eurofins (SafetyScreen44)
T17 sequence (P21396 whole entry): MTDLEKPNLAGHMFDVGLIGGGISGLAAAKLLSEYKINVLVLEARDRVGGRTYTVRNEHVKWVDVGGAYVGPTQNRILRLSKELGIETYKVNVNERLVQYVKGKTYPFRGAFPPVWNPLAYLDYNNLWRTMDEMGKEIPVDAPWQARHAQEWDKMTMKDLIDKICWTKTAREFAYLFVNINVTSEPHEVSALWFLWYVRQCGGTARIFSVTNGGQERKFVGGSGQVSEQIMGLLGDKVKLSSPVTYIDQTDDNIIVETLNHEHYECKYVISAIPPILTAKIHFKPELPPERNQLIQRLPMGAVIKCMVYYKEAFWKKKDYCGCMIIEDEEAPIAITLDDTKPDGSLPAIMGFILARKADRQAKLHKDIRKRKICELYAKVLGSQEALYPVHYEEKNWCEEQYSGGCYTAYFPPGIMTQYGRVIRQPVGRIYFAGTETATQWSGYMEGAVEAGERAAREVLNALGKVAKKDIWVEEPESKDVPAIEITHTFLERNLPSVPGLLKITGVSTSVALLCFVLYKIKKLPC
Method: as §1

H2 (h) = target: T18, H2 (h) (Homo sapiens, UniProt P25021); test: SafetyScreen44; conditions: antagonist radioligand, specific binding, 1.0E-05 M
T18 construct: purchased Eurofins (SafetyScreen44)
T18 sequence (P25021 whole entry): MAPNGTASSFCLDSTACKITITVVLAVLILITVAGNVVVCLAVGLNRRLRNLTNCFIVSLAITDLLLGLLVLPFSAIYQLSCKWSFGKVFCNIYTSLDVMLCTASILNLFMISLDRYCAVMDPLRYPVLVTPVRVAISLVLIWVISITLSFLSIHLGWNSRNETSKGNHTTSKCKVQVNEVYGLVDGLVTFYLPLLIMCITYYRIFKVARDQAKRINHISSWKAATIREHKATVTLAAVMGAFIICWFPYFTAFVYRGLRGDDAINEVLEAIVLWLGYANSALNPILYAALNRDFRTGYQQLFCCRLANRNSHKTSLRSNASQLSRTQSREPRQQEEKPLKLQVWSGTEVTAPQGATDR
Method: as §1

KV channel = test: SafetyScreen44; conditions: antagonist radioligand, specific binding, 1.0E-05 M
Method: as §1

beta 1 (h) = target: T19, beta 1 (h) (Homo sapiens, UniProt P08588); test: SafetyScreen44; conditions: agonist radioligand, specific binding, 1.0E-05 M
T19 construct: purchased Eurofins (SafetyScreen44)
T19 sequence (P08588 whole entry): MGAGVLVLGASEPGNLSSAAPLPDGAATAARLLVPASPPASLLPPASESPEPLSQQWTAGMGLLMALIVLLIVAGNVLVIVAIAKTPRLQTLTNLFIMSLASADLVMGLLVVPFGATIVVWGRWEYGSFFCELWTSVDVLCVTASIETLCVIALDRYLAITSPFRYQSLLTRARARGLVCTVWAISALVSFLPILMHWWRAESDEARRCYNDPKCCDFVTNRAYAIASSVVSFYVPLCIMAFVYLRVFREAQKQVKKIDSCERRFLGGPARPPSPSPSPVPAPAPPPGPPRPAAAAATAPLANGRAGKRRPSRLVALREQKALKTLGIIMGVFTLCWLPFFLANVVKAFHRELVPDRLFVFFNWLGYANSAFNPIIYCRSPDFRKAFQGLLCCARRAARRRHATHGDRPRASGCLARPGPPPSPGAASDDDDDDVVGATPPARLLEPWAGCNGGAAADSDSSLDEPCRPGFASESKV
Method: as §1

CB1 (h) = target: T20, CB1 (h) (Homo sapiens, UniProt P21554); test: SafetyScreen44; conditions: agonist radioligand, specific binding, 1.0E-05 M
T20 construct: purchased Eurofins (SafetyScreen44 panel) assay 36
Method: as §1

CYP3A = test: CYP inhibition; conditions: HLM; for inhibition at 10 µM: human, human liver microsomes, CYP3A inhibition
Method: as §2

MRSA ATCC 33591 = test: Neutropenic murine thigh infection model; conditions: oral 50 mg/kg TID at 2, 8, and 14 h postinfection; at 26 h
in vivo = conditions: male, mouse, po
K. pneumoniae = test: Mutation frequency and agar MIC; type: cell-based; conditions: M6

Cc1cc(C)nc(N[C@@H]2CCN(c3c(F)cc4c(=O)c(C(=O)O)cn5c4c3OC[C@@H]5C)C2)n1 [Compound 50, (S)-10-((R)-3-((4,6-Dimethylpyrimidin-2-yl)amino)pyrrolidin-1-yl)-9-fluoro-3-methyl-7-oxo-2,3-dihydro-7H-[1,4]oxazino[2,3,4-ij]quinoline-6-carboxylic acid]
Agar MIC (E. faecium): 2 µg/mL | inhibition at 10 µM (COX2(h)): 25.9% | inhibition at 10 µM (PDE4D2 (h)): 31.8% | inhibition at 10 µM (PDE3A (h)): 12.2% | inhibition at 10 µM (COX1(h)): 15% | inhibition at 10 µM (Lck kinase (h)): 2.87% | inhibition at 10 µM (acetylcholinesterase (h)): 34.2% | Response (death/test) ([1]; PO 100 mg/kg, 1 hr after 1st dosing): 0/3 | Response (death/test) ([1]; PO 100 mg/kg, 1 hr after 2nd dosing): 0/3 | Response (death/test) ([1]; PO 100 mg/kg, 1 hr after 3rd dosing): 0/3 | Response (death/test) ([1]; PO 100 mg/kg, 2 hrs after 3rd dosing): 0/3 | Response (death/test) ([1]; PO 100 mg/kg, 6 hrs after 1st dosing): 0/3 | Response (death/test) ([1]; PO 100 mg/kg, 6 hrs after 2nd dosing): 0/3 | Response (death/test) ([1]; PO 100 mg/kg, 24 hrs after 3rd dosing): 0/3 | Response (death/test) ([1]; PO 100 mg/kg, 48 hrs after 3rd dosing): 0/3 | Response (death/test) ([1]; PO 100 mg/kg, 72 hrs after 3rd dosing): 0/3 | B.W. ([1]; PO 100 mg/kg, 72 hrs after final dose, 100 mg/kg): 24 and 25 | B.W. ([1]; PO 100 mg/kg, Pre-dose, 100 mg/kg): 24 and 23 | Response (death/test) ([1]; PO 200 mg/kg, 1 hr after 1st dosing): 0/3 | Response (death/test) ([1]; PO 200 mg/kg, 1 hr after 2nd dosing): 0/3 | Response (death/test) ([1]; PO 200 mg/kg, 1 hr after 3rd dosing): 0/3 | Response (death/test) ([1]; PO 200 mg/kg, 2 hrs after 3rd dosing): 0/3 | Response (death/test) ([1]; PO 200 mg/kg, 6 hrs after 1st dosing): 0/3 | Response (death/test) ([1]; PO 200 mg/kg, 6 hrs after 2nd dosing): 0/3 | Response (death/test) ([1]; PO 200 mg/kg, 24 hrs after 3rd dosing): 0/3 | Response (death/test) ([1]; PO 200 mg/kg, 48 hrs after 3rd dosing): 0/3 | Response (death/test) ([1]; PO 200 mg/kg, 72 hrs after 3rd dosing): 0/3 | B.W. ([1]; PO 200 mg/kg, 72 hrs after final dose, 200 mg/kg): 25 and 28 | B.W. ([1]; PO 200 mg/kg, Pre-dose, 200 mg/kg): 23 and 24 | Response (death/test) ([1]; PO 400 mg/kg, 1 hr after 1st dosing): 0/3 | Response (death/test) ([1]; PO 400 mg/kg, 1 hr after 2nd dosing): 0/3 | Response (death/test) ([1]; PO 400 mg/kg, 1 hr after 3rd dosing): 0/3 | Response (death/test) ([1]; PO 400 mg/kg, 2 hrs after 3rd dosing): 0/3 | Response (death/test) ([1]; PO 400 mg/kg, 6 hrs after 1st dosing): 0/3 | Response (death/test) ([1]; PO 400 mg/kg, 6 hrs after 2nd dosing): 0/3 | Response (death/test) ([1]; PO 400 mg/kg, 24 hrs after 3rd dosing): 0/3 | Response (death/test) ([1]; PO 400 mg/kg, 48 hrs after 3rd dosing): 0/3 | Response (death/test) ([1]; PO 400 mg/kg, 72 hrs after 3rd dosing): 0/3 | B.W. ([1]; PO 400 mg/kg, 72 hrs after final dose, 400 mg/kg): 25 and 23 | B.W. ([1]; PO 400 mg/kg, Pre-dose, 400 mg/kg): 20 and 21 | inhibition at 10 µM (CYP1A): 16% | AUC of growth curve ([2]; 0.25 MIC + R (reserpine)): 2.985 and 3.342 and 3.404 | AUC of growth curve ([2]; 0.25 MIC): 3.519 and 4.693 and 4.851 | AUC of growth curve ([2]; 0.5 MIC + R (reserpine)): 1.548 and 1.586 and 2.254 | AUC of growth curve ([2]; 0.5 MIC): 2.203 and 2.425 and 1.859 | efflux liability in reserpine assay ([2]; 0.5x MIC with vs without reserpine): minimal shift | % Inhibition [3]: -1.132% | inhibition at 10 µM (ETA (h)): 0.266% | inhibition at 10 µM (dopamine transporter (h)): 22.6% | inhibition at 10 µM (5-HT3 (h)): 7.02% | inhibition at 10 µM (beta 2 (h)): -4.15% | inhibition at 10 µM (alpha 2A (h)): 23.5% | inhibition at 10 µM (V1a (h)): 9.53% | inhibition at 10 µM (M2 (h)): 62.8% | inhibition at 10 µM (5-HT1B): 10.2% | inhibition at 10 µM (5-HT transporter (h)): 2.23% | inhibition at 10 µM (MAO-A): 15% | inhibition at 10 µM (H2 (h)): -9.63% | % Inhibition (KV channel): 3.113% | inhibition at 10 µM (beta 1 (h)): 12.5% | inhibition at 10 µM (CB1 (h)): -8.28% | CYP3A inhibition (CYP3A; midazolam substrate, 10 μM): 10.5% | inhibition at 10 µM (CYP3A; probe midazolam, midazolam substrate): 10.5% | inhibition at 10 µM (CYP3A; probe testosterone, testosterone substrate): 6.32% | bacterial counts in thigh (MRSA ATCC 33591): 4.6 log10 CFU/g | reduction relative to the vehicle (MRSA ATCC 33591): 4.1 log10 CFU/g | MTD at 72 h (in vivo): ≥ 400 mg/kg

C[C@H]1COc2c(N3CCN(C)CC3)c(F)cc3c(=O)c(C(=O)O)cn1c23 [Levofloxacin, (S)-9-Fluoro-3-methyl-10-(4-methylpiperazin-1-yl)-7-oxo-2,3-dihydro-7H-[1,4]oxazino[2,3,4-ij]quinoline-6-carboxylic acid, reference compound]
Agar MIC (K. pneumoniae): 0.03 µg/mL | Agar MIC (E. faecium): 1 µg/mL | bacterial counts in thigh (MRSA ATCC 33591): 4.51 log10 CFU/g
